In ChEMBL document CHEMBL2157879, “Improving the affinity of naphthalene diimide ligand to telomeric DNA by incorporating Zn²⁺ ions into its dipicolylamine groups” (Bioorg Med Chem, 2012):
Active and inactive are the calls of the source. The rule behind the calls is not given here.

How the values were obtained:
Nucleic Acid [1] = test: Binding affinity to AGGG(TTAGGG)3 G-quadruplex in Tris-HCl buffer by spectrophotometric titration method in presence of 100 mM KCl; type: nucleic-acid assay
Nucleic Acid [2] = test: Binding affinity to TAGGG(TTAGGG)3 G-quadruplex in Tris-HCl buffer by spectrophotometric titration method in presence of 100 mM KCl; type: nucleic-acid assay
Nucleic Acid [3] = test: Binding affinity to AGGG(TTAGGG)3 G-quadruplex in Tris-HCl buffer assessed as change in melting temperature at 3 uM by CD titration method in presence of 100 mM KCl; type: nucleic-acid assay
Nucleic Acid [4] = test: Binding affinity to TAGGG(TTAGGG)3 G-quadruplex in Tris-HCl buffer assessed as change in melting temperature at 3 uM by CD titration method in presence of 100 mM KCl; type: nucleic-acid assay
Nucleic Acid [5] = test: Binding affinity to AGGG(TTAGGG)3 G-quadruplex in Tris-HCl buffer by UV-vis spectrophotometric titration method in presence of 100 mM KCl; type: nucleic-acid assay
Nucleic Acid [6] = test: Binding affinity to AGGG(TTAGGG)3 G-quadruplex in Tris-HCl buffer assessed as change in melting temperature at 3 uM by CD titration method in presence of 100 mM NaCl; type: nucleic-acid assay
Nucleic Acid [7] = test: Binding affinity to TAGGG(TTAGGG)3 G-quadruplex in Tris-HCl buffer assessed as change in melting temperature at 3 uM by CD titration method in presence of 100 mM NaCl; type: nucleic-acid assay
[8] = biological target: Telomerase reverse transcriptase (Homo sapiens, UniProt O14746); test: Inhibition of telomerase-mediated primer elongation by gel electrophoresis-based TRAP assay
Telomerase reverse transcriptase, sequence (O14746 whole entry): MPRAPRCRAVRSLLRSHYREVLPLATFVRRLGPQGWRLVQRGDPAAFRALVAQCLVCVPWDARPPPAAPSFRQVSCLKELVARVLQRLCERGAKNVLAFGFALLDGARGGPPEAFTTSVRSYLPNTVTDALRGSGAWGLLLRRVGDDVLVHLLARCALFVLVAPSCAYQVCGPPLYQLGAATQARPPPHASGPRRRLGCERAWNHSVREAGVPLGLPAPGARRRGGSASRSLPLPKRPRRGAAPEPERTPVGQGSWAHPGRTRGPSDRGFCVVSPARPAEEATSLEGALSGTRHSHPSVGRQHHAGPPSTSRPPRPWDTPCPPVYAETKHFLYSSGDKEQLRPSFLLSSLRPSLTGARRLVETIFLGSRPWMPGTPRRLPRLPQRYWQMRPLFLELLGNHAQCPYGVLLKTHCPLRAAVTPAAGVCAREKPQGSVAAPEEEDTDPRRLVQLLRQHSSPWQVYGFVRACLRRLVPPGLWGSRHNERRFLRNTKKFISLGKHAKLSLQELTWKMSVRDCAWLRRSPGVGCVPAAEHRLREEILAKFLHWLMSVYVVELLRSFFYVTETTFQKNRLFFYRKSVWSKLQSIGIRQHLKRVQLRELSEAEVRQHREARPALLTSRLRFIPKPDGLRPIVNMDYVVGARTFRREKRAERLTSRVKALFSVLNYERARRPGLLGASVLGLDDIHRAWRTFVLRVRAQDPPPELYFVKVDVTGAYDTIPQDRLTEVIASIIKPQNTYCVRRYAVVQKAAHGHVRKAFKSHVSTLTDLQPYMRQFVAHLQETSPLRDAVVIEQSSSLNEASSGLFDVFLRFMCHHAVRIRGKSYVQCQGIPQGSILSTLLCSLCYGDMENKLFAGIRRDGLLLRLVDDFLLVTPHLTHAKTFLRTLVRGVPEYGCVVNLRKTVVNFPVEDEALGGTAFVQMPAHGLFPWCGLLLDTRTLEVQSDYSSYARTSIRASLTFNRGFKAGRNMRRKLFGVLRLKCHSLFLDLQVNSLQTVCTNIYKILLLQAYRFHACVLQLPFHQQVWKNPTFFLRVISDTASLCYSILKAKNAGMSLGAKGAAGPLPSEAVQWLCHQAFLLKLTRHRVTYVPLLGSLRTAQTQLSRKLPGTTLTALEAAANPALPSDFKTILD

Nucleic Acid [9] = test: Binding affinity to biotin-labeled AGGG(TTAGGG)3 at 1 to 960 nM by SPR analysis in presence of 0.15 mM NaCl; type: nucleic-acid assay
Nucleic Acid [10] = test: Binding affinity to biotin-labeled TAGGG(TTAGGG)3 at 1 to 960 nM by SPR analysis in presence of 0.15 mM NaCl; type: nucleic-acid assay
Nucleic Acid [11] = test: Binding affinity to biotin-labeled AGGG(TTAGGG)3 at 1 to 960 nM by SPR analysis in presence of […]; type: nucleic-acid assay
Nucleic Acid [12] = test: Binding affinity to biotin-labeled TAGGG(TTAGGG)3 at 1 to 960 nM by SPR analysis in presence of […]; type: nucleic-acid assay
Nucleic Acid [13] = test: Binding affinity to TAGGG(TTAGGG)3 G-quadruplex in Tris-HCl buffer by UV-vis spectrophotometric titration method in presence of 100 mM KCl; type: nucleic-acid assay
Nucleic Acid [14] = test: Binding affinity to ds AGGG(TTAGGG)3 in Tris-HCl buffer after 2 hrs by UV-vis spectrophotometric titration method in presence of 100 mM KCl; type: nucleic-acid assay
Nucleic Acid [15] = test: Binding affinity to ds AGGG(TTAGGG)3 in Tris-HCl buffer assessed as melting temperature at DNA/compound molar ratio 1:2 by CD titration method in presence of 100 mM KCl (reference value: 58 degC); type: nucleic-acid assay
Nucleic Acid [16] = test: Stabilization of TAGGG(TTAGGG)3 G-quadruplex in Tris-HCl buffer at DNA/ligand molar ratio 1 to 4 by CD titration method 100 mM KCl; type: nucleic-acid assay
Nucleic Acid [17] = test: Stabilization of AGGG(TTAGGG)3 G-quadruplex in Tris-HCl buffer at DNA/ligand molar ratio 1 to 4 by CD titration method in presence of 100 mM KCl; type: nucleic-acid assay

Structure (SMILES): CN(CCCN(Cc1ccccn1)Cc1ccccn1)CCCN1C(=O)c2ccc3c4c(ccc(c24)C1=O)C(=O)N(CCCN(C)CCCN(Cc1ccccn1)Cc1ccccn1)C3=O
- K (Nucleic Acid [1]): 1.1 µM
- K (Nucleic Acid [2]): 2.8 µM
- ΔTm (Nucleic Acid [3]): 12 °C
- ΔTm (Nucleic Acid [4]): 13 °C
- Activity (Nucleic Acid [5]): inactive
- ΔTm (Nucleic Acid [6]): 1 °C
- ΔTm (Nucleic Acid [7]): 1 °C
- EC50 [8]: 4 µM
- Activity (Nucleic Acid [9]): inactive
- Activity (Nucleic Acid [10]): inactive
- Activity (Nucleic Acid [11]): Active
- Activity (Nucleic Acid [12]): Active
- Activity (Nucleic Acid [13]): inactive
- K (Nucleic Acid [14]): 0.9 µM
- Tm (Nucleic Acid [15]): 66 °C
- Activity (Nucleic Acid [16]): Active
- Activity (Nucleic Acid [17]): Active
